Assay results: PubChem BioAssay (NCI)
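Assay format: 96-well plates, 48-hour exposure. Here, GI50 denotes the concentration required for 50% inhibition of growth. TGI: total growth inhibition.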

Key:
Assay in all cases: NCI tumour cell line growth inhibition, 48 h
[1] = test system: 786-0 renal
[2] = test system: SK-MEL-2 melanoma
[3] = test system: HL-60(TB) leukemia
[4] = test system: CAKI-1 renal
[5] = test system: HOP-62 NSCLC
[6] = test system: EKVX NSCLC
[7] = test system: IGROV1 ovarian
[8] = test system: HCT-15 colon
[9] = test system: T-47D breast
[10] = test system: MCF7 breast

Compound | TGI [1] | TGI [2] | TGI [3] | TGI [4] | TGI [5] | TGI [6] | TGI [7] | TGI [8] | GI50 [1] | GI50 [3] | GI50 [4] | GI50 [8] | GI50 [5] | GI50 [6] | GI50 [9] | TGI [9] | GI50 [10] | TGI [10] | GI50 [2] | GI50 [7]
NC(=O)c1c[se]c(C2OC(COP(=O)(O)CP(=O)(O)OCC3OC(n4cnc5c(N)ncnc54)C(O)C3O)C(O)C2O)n1 (stereo not drawn) | > 100 µM | > 100 µM | > 100 µM | > 100 µM | > 100 µM | > 100 µM | > 100 µM |  |  |  |  |  |  |  |  |  |  |  |  | 
CC[P+]1(CC)CCCC1 | > 100 µM | > 100 µM |  | > 100 µM | > 100 µM | > 100 µM | > 100 µM | > 100 µM |  |  |  |  |  |  |  |  |  |  |  | 
COC(=O)C1(F)C(=O)NC(=O)NC1OC (stereo not drawn) | > 100 µM | > 100 µM | > 100 µM | > 100 µM | > 100 µM |  | > 100 µM | > 100 µM |  |  |  |  |  |  |  |  |  |  |  | 
COc1nc2c(c(O)c(C)c(=O)n2OC2OC(COC(C)=O)C(OC(C)=O)C(OC(C)=O)C2OC(C)=O)c(=O)n1C (stereo not drawn) | > 100 µM | > 100 µM |  |  | > 100 µM | > 100 µM | > 100 µM | > 100 µM |  |  |  |  |  |  |  |  |  |  |  | 
CC1(C)CC(=O)c2c(oc3cc(O)c(O)cc23)C1 | > 100 µM | 76.8 µM | 48.5 µM | 76.6 µM | > 100 µM |  | > 100 µM | > 100 µM |  |  |  |  |  |  |  |  |  |  |  | 
NC(N)=N/N=C/c1c(-c2ccc(Cl)c([N+](=O)[O-])c2)nc2n1CCS2 | 15.3 µM |  | 6.27 µM | 28 µM | 9.44 µM | 26.3 µM |  | 67.3 µM | 4.18 µM | 2.34 µM | 13.5 µM | 23.1 µM | 2.83 µM | 12.7 µM | 21.6 µM | 50.2 µM |  |  |  | 
c1ccc(OCCSCCCCCCCCCCSCCOc2ccccc2)cc1 | > 100 µM | > 100 µM | > 100 µM |  | > 100 µM | > 100 µM | > 100 µM | > 100 µM |  |  |  |  |  |  |  |  |  |  |  | 
CCCCCCCCCC(=O)Oc1cccc2onc(C)c12 | > 100 µM | > 100 µM | 56.4 µM | > 100 µM | > 100 µM | > 100 µM | > 100 µM | > 100 µM |  |  |  |  |  |  |  |  |  |  |  | 
CCC(=O)c1cc([N+](=O)[O-])c(Br)s1 | 26.6 µM |  |  | 3.41 µM | 4.54 µM | 34.8 µM |  | 8.21 µM | 12.6 µM |  | 1.66 µM | 2.47 µM | 2.25 µM | 16.4 µM |  |  | 2.89 µM | 12.3 µM |  | 
CC1=C(C(=O)CC(=O)C(=O)NC2C3CC4CC(C3)CC2C4)Sc2ccccc2N1 (stereo not drawn) | > 100 µM | > 100 µM | > 100 µM | > 100 µM | > 100 µM | > 100 µM | > 100 µM | > 100 µM |  |  |  |  |  |  |  |  |  |  |  | 
Cc1ccccc1NC(=O)C(=O)CC(=O)c1ccc([N+](=O)[O-])cc1 | > 100 µM | > 100 µM |  | > 100 µM | > 100 µM | > 100 µM | > 100 µM | > 100 µM |  |  |  |  |  |  |  |  |  |  |  | 
NC(=O)c1cc(I)ccc1NC(=O)COc1ccccc1 | 18.8 µM | 16.3 µM | 27.8 µM | > 100 µM | 12.4 µM |  | > 100 µM | > 100 µM | 0.957 µM | 0.335 µM | 0.547 µM | 0.33 µM | 0.598 µM |  | 0.556 µM | > 100 µM | 0.279 µM | > 100 µM | 0.566 µM | 2.34 µM
CCOC(=O)C[C@@]12CCCNC1(C)CCc1ccccc12 (stereo partly drawn) | > 100 µM | > 100 µM | > 100 µM |  | > 100 µM | > 100 µM | > 100 µM | > 100 µM |  |  |  |  |  |  |  |  |  |  |  | 
O=C(Nc1cc(S(=O)(=O)c2ccc(Cl)cc2)ccc1Cl)c1cc(I)cc(I)c1O | 30 µM | 39.4 µM | 31.6 µM | 38.2 µM | 34.1 µM | 44.5 µM | 37.7 µM | 32.7 µM | 15.6 µM | 14.5 µM | 20.3 µM | 16.5 µM | 18.6 µM | 20.2 µM |  |  | 18.4 µM | 36.9 µM | 16.6 µM | 20 µM
C/C(=N/O)c1ccc2c(c1)C(=NO)c1cc(/C(C)=N/O)ccc1-2 | 42.3 µM | 40.1 µM | 91.4 µM | > 100 µM | 28.3 µM | 41.7 µM | 49.2 µM | 36.3 µM |  |  |  |  |  |  |  |  |  |  |  | 
O=C1C(c2ccccc2)=C(c2ccccc2)[C@H](c2ccccc2)[C@]1(Cc1nnn(-c2ccc([N+](=O)[O-])cc2)c1N1CCOCC1)c1ccccc1 | > 37.5 µM |  | > 37.5 µM | > 37.5 µM | > 37.5 µM | > 37.5 µM | > 37.5 µM | > 37.5 µM |  |  |  |  |  |  |  |  |  |  |  | 
Cc1cc([N+](=O)[O-])c(S(=O)(=O)c2ccccc2)c([N+](=O)[O-])c1 | 12.3 µM | 47.6 µM | 10.7 µM | 10.3 µM | 40 µM | > 72.5 µM | 31.1 µM | 35.3 µM |  |  |  |  |  |  |  |  |  |  |  | 
O=c1[nH]c2cc(Cl)c(Cl)cc2n2cc3ccccc3c12 | 39.6 µM | 54 µM |  | 34.9 µM |  | 43.5 µM | 31.2 µM | 30.2 µM | 24.9 µM |  | 20.6 µM | 16.6 µM |  | 21.9 µM | 30.8 µM | 75.5 µM | 21.4 µM | 39.5 µM | 24.9 µM | 17.4 µM
CC(=O)[CH-]C(=O)c1ccccc1.CC(=O)[CH-]C(=O)c1ccccc1.[CH2-]CCC.[CH2-]CCC.[Sn+4] | 2.28 µM | 1.77 µM | 1.09 µM | 1.22 µM |  | 3.25 µM | 3.28 µM | 2.87 µM | 1.09 µM | 0.322 µM | 0.322 µM | 1.29 µM |  | 1.41 µM |  |  |  |  | 0.555 µM | 1.57 µM
COc1cc(O)c(C(C)=O)c(O)c1 | > 100 µM | > 100 µM |  |  | > 100 µM | > 100 µM | > 100 µM | > 100 µM |  |  |  |  |  |  |  | > 100 µM |  | > 100 µM |  | 
COc1ccc(CC2=NCCc3cc(OC)c(OC)cc32)cc1Br | > 100 µM | > 100 µM | 21.7 µM | 59.3 µM | > 100 µM | > 100 µM |  |  |  |  |  |  |  |  |  |  |  |  |  | 
COC(=O)c1cc2c3c(ccc2[nH]1)N(C(=O)c1cc2c4c(ccc2[nH]1)N(C(=O)c1cc2c5c(ccc2[nH]1)N(C(N)=O)CC5)CC4)CC3 | > 31.9 µM | > 24.4 µM | > 70.5 µM | 8.95 µM | 7.83 µM | > 100 µM | 20.5 µM | > 100 µM |  |  |  |  |  |  |  |  |  |  |  | 
